Source: paper PMC7770674, “A Combinative Assembly Strategy Inspired Reversibly Borate-Bridged Polymeric Micelles for Lesion-Specific Rapid Release of Anti-Coccidial Drugs” (Nano-Micro Letters, 2020)

Test system: Caco2 cells
Assay: In vitro cytotoxicity MTT assay
Type: cell-based, human
Settings: DIC concentration 100 μg mL^−1, 48 h
Experimental: For cell studies, human colon cancer cell line Caco2 cells (Shanghai Institute of Biochemistry and Cell Biology, Chinese Academy of Sciences, Shanghai, China) were cultured in DMEM medium supplemented with 10% FBS, 100 U mL^−1 penicillin, and 100 μg mL^−1 streptomycin at 37 °C under an atmosphere of 5% CO2 and 95% relative humidity. In vitro cytotoxicity of free DIC, blank micelles and DIC-encapsulated micelles were evaluated by 3-(4,5-dimethylthiazol-2-yl)-2,5-diphenyltetrazolium bromide (MTT) assay. Caco2 cells were planted in 96-well plate at a density of 5 × 10^3 cells per well and cultured for another 24 h. The cells were treated with free DIC, PCS/DIC micelles, PCS + DIC mixture, SPCS/DIC micelles and SPCS + DIC mixture at a range of DIC concentrations (0.001–100 μg mL^−1), or PCS and SPCS blank micelles at equivalent concentrations of corresponding drug-loaded micelles for 48 h. Thereafter, 20 µL of MTT solution (5 mg mL^−1) was added to each well and incubated with cells for another 4 h at 37 °C. The culture medium was then removed, and the formed dark blue formazan crystals were dissolved with 100 µL of DMSO. The absorbance at 570 nm was recorded using a microplate reader (EL800, BIO-TEK Instruments Inc., USA). Untreated cells were used as control, and cell viability (%) was calculated according to Eq. (3).3 Cellviability(%)=Atest/Acontrol×100%

SMILES: N#CC(c1ccc(Cl)cc1)c1c(Cl)cc(-n2ncc(=O)[nH]c2=O)cc1Cl (stereo not shown) [Free DIC, Diclazuril]
- cells survived: less than 10%
